This is an account of results in US9238656B2, “Imidazo[4,5-b]pyridine derivatives as ALK and JAK modulators for the treatment of proliferative disorders” (priority 2012, dated 2016).

For series [1] the following is noted: 30 mg BID, kidney allograft recipients; cited from earlier work.
Series [2] addresses baculovirus-expressed ALK (Homo sapiens, UniProt Q9UM73). The experiment in a line: ALK kinase inhibition, TRF/ELISA. In kind it is biochemical. The conditions noted are these: read-out: ALK Potency. In short, it runs like this:
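Eu-PT66 anti-phosphotyrosine TRF read-out measured phosphorylation of plate-bound GST-PLC-γ (coated at 10 μg/mL). The phosphorylation was driven by 30 ng/mL ALK for 15 minutes at 37° C.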
(In general: An ELISA detects its analyte on a solid surface through an enzyme-linked reagent.)

Series [3] deals with baculovirus-expressed JAK2 kinase (Homo sapiens, UniProt O60674). The experiment in a line: biochemical. The conditions noted are these: 0.2 μM ATP; read-out: JAK2 Potency. An outline of the steps:
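IC50 derived by variable-slope sigmoidal fit of percent inhibition against log compound concentration. Baculovirus-expressed JAK2 (15 ng/mL) phosphorylated a plate-bound biotinylated 15-mer peptide for 20 min at room temperature; detection by time-resolved fluorescence.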

pIC50: −log10 of the molar value.

Chain of baculovirus-expressed JAK2 kinase (O60674 whole entry): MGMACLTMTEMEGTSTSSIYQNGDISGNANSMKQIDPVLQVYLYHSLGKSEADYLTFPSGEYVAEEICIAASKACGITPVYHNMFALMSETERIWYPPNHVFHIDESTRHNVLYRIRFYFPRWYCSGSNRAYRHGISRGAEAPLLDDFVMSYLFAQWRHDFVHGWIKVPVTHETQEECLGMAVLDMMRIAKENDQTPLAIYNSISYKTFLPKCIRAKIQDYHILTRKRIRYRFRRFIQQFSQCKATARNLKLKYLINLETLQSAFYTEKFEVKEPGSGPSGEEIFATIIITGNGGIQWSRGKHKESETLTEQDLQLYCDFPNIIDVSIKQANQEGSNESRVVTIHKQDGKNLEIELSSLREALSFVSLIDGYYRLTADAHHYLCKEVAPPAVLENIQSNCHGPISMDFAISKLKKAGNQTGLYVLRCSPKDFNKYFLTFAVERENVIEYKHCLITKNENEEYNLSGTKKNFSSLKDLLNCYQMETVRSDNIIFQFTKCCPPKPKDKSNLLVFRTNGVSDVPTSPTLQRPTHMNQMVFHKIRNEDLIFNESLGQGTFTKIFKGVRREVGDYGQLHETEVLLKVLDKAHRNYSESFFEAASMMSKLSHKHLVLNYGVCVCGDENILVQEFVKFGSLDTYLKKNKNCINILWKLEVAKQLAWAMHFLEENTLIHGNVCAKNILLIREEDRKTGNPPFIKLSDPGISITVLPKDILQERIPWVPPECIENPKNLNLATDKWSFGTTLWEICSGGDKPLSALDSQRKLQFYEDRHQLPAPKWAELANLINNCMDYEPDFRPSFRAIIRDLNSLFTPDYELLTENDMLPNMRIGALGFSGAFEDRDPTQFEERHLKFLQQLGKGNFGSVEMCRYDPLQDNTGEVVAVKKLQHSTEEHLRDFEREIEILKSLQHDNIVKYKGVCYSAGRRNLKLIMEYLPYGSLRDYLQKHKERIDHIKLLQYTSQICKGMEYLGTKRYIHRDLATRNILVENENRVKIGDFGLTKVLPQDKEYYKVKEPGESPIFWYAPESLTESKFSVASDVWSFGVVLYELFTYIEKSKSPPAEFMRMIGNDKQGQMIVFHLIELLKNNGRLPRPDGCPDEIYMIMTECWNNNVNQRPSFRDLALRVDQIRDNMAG
Chain of baculovirus-expressed ALK (Q9UM73 19-1620): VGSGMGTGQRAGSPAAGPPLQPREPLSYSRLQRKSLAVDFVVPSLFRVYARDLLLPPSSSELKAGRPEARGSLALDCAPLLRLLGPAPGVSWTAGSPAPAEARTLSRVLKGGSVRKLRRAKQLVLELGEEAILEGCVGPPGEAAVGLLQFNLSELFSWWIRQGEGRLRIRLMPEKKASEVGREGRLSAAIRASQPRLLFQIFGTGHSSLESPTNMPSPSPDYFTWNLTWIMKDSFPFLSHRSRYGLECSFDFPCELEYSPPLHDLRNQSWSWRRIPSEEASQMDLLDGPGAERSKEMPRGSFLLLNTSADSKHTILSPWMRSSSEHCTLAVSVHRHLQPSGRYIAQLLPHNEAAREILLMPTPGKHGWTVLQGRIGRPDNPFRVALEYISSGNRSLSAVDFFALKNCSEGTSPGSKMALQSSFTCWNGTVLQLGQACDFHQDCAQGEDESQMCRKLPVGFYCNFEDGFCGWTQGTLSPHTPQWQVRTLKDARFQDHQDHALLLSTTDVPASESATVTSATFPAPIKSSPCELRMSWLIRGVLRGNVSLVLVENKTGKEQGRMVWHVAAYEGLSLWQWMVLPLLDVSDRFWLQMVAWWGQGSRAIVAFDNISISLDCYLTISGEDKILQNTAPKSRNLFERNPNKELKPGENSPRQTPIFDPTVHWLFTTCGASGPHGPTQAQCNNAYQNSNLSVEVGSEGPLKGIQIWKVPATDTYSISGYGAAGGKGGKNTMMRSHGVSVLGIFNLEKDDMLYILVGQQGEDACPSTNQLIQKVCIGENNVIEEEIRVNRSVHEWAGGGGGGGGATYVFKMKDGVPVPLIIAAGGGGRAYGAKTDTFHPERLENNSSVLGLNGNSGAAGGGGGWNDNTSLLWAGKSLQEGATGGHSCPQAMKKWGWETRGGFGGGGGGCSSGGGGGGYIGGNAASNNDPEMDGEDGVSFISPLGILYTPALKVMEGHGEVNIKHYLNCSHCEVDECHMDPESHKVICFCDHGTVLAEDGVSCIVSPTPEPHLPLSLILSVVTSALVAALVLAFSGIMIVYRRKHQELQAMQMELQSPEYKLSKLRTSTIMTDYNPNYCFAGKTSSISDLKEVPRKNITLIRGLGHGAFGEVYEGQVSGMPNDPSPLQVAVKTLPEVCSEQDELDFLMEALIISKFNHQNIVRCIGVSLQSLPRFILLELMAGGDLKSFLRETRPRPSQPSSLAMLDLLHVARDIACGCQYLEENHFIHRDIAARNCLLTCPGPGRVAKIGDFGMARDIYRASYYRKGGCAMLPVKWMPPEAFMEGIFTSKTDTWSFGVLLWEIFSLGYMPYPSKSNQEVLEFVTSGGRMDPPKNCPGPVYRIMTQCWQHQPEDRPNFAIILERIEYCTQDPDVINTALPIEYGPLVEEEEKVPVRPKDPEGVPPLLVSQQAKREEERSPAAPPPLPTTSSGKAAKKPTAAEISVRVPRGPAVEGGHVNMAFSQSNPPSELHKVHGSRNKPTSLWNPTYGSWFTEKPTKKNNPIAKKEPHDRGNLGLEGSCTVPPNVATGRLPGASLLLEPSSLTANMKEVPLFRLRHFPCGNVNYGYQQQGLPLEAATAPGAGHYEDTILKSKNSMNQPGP

Take `C[C@@H]1CCN(C(=O)CC#N)C[C@@H]1N(C)c1ncnc2[nH]ccc12` [CP-690,550]: in series [1], the “subjects developed polyoma-associated nephropathy” value is 20%.

Molecule `CC(O)CN1CCN(C(=O)c2cccc(-c3nc4c(N[C@H]5[C@@H](C(N)=O)[C@@H]6C=C[C@H]5C6)c(Cl)cnc4[nH]3)c2)CC1` (stereo partly drawn) [Compound CCXXIII, (1S,2S,3R,4R)-3-(6-chloro-2-(3-(4-(2-hydroxypropyl)piperazine-1-carbonyl)phenyl)-3H-imidazo[4,5-b]pyridine-7-ylamino)pyridin[2.2.1]hept-5-ene-2-carboxamide] showed a melting point of 183 °C. In series [2], the pIC50 was 6.00 to 7.00. Besides, in series [3], the pIC50 is over 7.00.

`CN(C)c1cccc(-c2nc3c(N[C@H]4[C@@H](C(N)=O)[C@@H]5C=C[C@H]4C5)c(Br)cnc3[nH]2)c1` [Compound LXXVII, (1S,2S,3R,4R)-3-[6-Bromo-2-(3-dimethylamino-phenyl)-3H-imidazo[4,5-b]pyridin-7-ylamino]-bicyclo[2.2.1]hept-5-ene-2-carboxylic acid amide] returned a melting point of 220 to 221 °C. Besides, in series [2], the pIC50 is over 7.00. Further, the pIC50 in series [3] was over 7.00.

`COc1cc(C2CCN(C[C@@H](O)CO)CC2)ccc1-c1nc2c(N[C@H]3[C@@H](C(N)=O)[C@@H]4C=C[C@H]3C4)c(Cl)cnc2[nH]1` [Compound CXVIII, (1S,2S,3R,4R)-3-(6-Chloro-2-{4-[1-((R)-2,3-dihydroxy-propyl)-piperidin-4-yl]-2-methoxy-phenyl}-3H-imidazo[4,5-b]pyridin-7-ylamino)-bicyclo[2.2.1]hept-5-ene-2-carboxylic acid amide] displayed a melting point of 209 to 211 °C. Moreover, in series [2], the pIC50 was over 7.00. Besides, the pIC50 in series [3] is over 7.00.

In turn, `CC(C)(C)OC(=O)N1CCCC(c2nc3c(N[C@H]4[C@@H](C(N)=O)[C@@H]5C=C[C@H]4C5)c(Br)cnc3[nH]2)C1` (stereo partly drawn) [Compound LXXXII, 3-[6-Bromo-7-((1R,2R,3S,4S)-3-carbamoyl-bicyclo[2.2.1]hept-5-en-2-ylamino)-3H-imidazo[4,5-b]pyridin-2-yl]-piperidine-1-carboxylic acid tert-butyl] yielded a melting point of 172 to 177 °C. For the same molecule, in series [2], the pIC50 was 6.00 to 7.00. In series [3], the pIC50 is 6.00 to 7.00.

As to `C=CCc1ccc(-c2nc3c(N[C@H]4[C@@H](C(N)=O)[C@@H]5C=C[C@H]4C5)c(Cl)cnc3[nH]2)c(OC)c1` [Compound LVI, (1S,2S,3R,4R)-3-[2-(4-Allyl-2-methoxy-phenyl)-6-chloro-3H-imidazo[4,5-b]pyridine-7-ylamino]-bicyclo[2.2.1]hept-5-ene-2-carboxylic acid amide], the melting point is 123 to 126 °C. In series [2], the pIC50 was over 7.00. The pIC50 in series [3] was over 7.00.

`NC(=O)[C@@H]1[C@H](Nc2c(Br)cnc3[nH]c(-c4cccc(CN5CCOCC5)c4)nc23)[C@H]2C=C[C@@H]1C2` [Compound LXXXI, (1S,2S,3R,4R)-3-[6-Bromo-2-(3-morpholin-4-ylmethyl-phenyl)-3H-imidazo[4,5-b]pyridin-7-ylamino]-bicyclo[2.2.1]hept-5-ene-2-carboxylic acid amide] gave a melting point of 184 to 185 °C. In addition, the pIC50 in series [2] is over 7.00. In addition, the pIC50 in series [3] is over 7.00.

The molecule `COc1cc(N2CCC(N3CCN(C)CC3)CC2)ccc1-c1nc2c(N[C@H]3[C@@H](C(N)=O)[C@@H]4C=C[C@H]3C4)ccnc2[nH]1` [Compound XCIX, (1S,2S,3R,4R)-3-(2-{2-Methoxy-4-[4-(4-methyl-piperazin-1-yl)-piperidin-1-yl]-phenyl}-3H-imidazo[4,5-b]pyridin-7-ylamino)-bicyclo[2.2.1]hept-5-ene-2-carboxylic acid amide] displayed a melting point of 185 to 195 °C. Further, in series [2], the pIC50 was 6.00 to 7.00. In addition, in series [3], the pIC50 was under 5.00.

Turning to `CN1CCN(c2ccc(-c3nc4c(N[C@@H]5[C@H]6CC[C@H](C6)[C@@H]5C(N)=O)c(Br)cnc4[nH]3)cc2)CC1` [Compound CXIII, (1R,2S,3R,4S)-3-{6-Bromo-2-[4-(4-methyl-piperazin-1-yl)-phenyl]-3H-imidazo[4,5-b]pyridin-7-ylamino}-bicyclo[2.2.1]heptane-2-carboxylic acid amide], the melting point was 256 to 258 °C. In addition, the pIC50 in series [2] was over 7.00. Also, in series [3], the pIC50 was over 7.00.

Molecule `COc1cc(C2CCN(C[C@@H](C)O)CC2)ccc1-c1nc2c(N[C@H]3[C@@H](C(N)=O)[C@@H]4C=C[C@H]3C4)c(Cl)cnc2[nH]1` [Compound CXVI] had a melting point of over 120 °C. Further, the pIC50 in series [2] is over 7.00. Moreover, the pIC50 in series [3] was over 7.00.

`NC(=O)[C@@H]1[C@H](Nc2c(Cl)cnc3[nH]c(-c4ccc(C(=O)NCC(=O)O)cc4)nc23)[C@H]2C=C[C@@H]1C2` [Compound CCXXVIII, 2-(4-(7-((1R,2R,3S,4S)-3-carbamoylbicyclo[2.2.1]hept-5-en-2-ylamino)-6-chloro-3H-imidazo[4,5-b]pyridine-2-yl)benzamido)acetic acid] yielded a melting point of 291 °C. Further, the pIC50 in series [2] was 6.00 to 7.00. Also, the pIC50 in series [3] is over 7.00.

`NC(=O)[C@@H]1[C@H](Nc2c(Cl)cnc3[nH]c(-c4ccc5c(c4)CCC4(CCNCC4)O5)nc23)[C@H]2C=C[C@@H]1C2` [Compound CXV, (1S,2S,3R,4R)-3-[(6-chloro-2-spiro[chromane-2,4′-piperidine]-6-yl-3H-imidazo[4,5-b]pyridin-7-yl)amino]bicyclo[2.2.1]hept-5-ene-2-carboxamide] registered a melting point of over 250 °C. In series [2], the pIC50 is over 7.00. For the same molecule, the pIC50 in series [3] is over 7.00.

Molecule `COc1cccc(OC)c1-c1nc2c(N[C@H]3[C@@H](C(N)=O)[C@@H]4C=C[C@H]3C4)c(Br)cnc2[nH]1` [Compound CVI, (1S,2S,3R,4R)-3-[6-Bromo-2-(2,6-dimethoxy-phenyl)-3H-imidazo[4,5-b]pyridin-7-ylamino]-bicyclo[2.2.1]hept-5-ene-2-carboxylic acid amide] yielded a melting point of 194 to 197 °C. The pIC50 in series [2] is 5.00 to 6.00. The pIC50 in series [3] was 5.00 to 6.00.

`COc1cc(CN2CCN(C[C@H](C)O)CC2)ccc1-c1nc2c(N[C@H]3[C@@H](C(N)=O)[C@@H]4C=C[C@H]3C4)c(Cl)cnc2[nH]1` [Compound XLIII, (1S,2S,3R,4R)-3-(6-Chloro-2-{4-[4-((S)-2-hydroxypropyl)-piperazin-1-ylmethyl]-2-methoxyphenyl}-3H-imidazo[4,5-b]pyridine-7-ylamino)-bicyclo[2.2.1]hept-5-ene-2-carboxylic acid amide] registered a melting point of 142 to 146 °C. Moreover, in series [2], the pIC50 was over 7.00. Besides, the pIC50 in series [3] was over 7.00.

As for `COc1cc(C2CCN(C)CC2)ccc1-c1nc2c(N[C@H]3[C@@H](C(N)=O)[C@@H]4C=C[C@H]3C4)c(Cl)cnc2[nH]1` [Compound CXVII, (1S,2S,3R,4R)-3-{6-Chloro-2-[2-methoxy-4-(1-methyl-piperidin-4-yl)-phenyl]-3H-imidazo[4,5-b]pyridin-7-ylamino}-bicyclo[2.2.1]hept-5-ene-2-carboxylic acid amide], the melting point lay in the range of 232 to 235 °C. Further, the pIC50 in series [2] was over 7.00. Besides, the pIC50 in series [3] is over 7.00.

Molecule `Cn1cccc1-c1nc2c(N[C@H]3[C@@H](C(N)=O)[C@@H]4C=C[C@H]3C4)c(Br)cnc2[nH]1` [Compound CIX, (1S,2S,3R,4R)-3-[6-Bromo-2-(1-methyl-1H-pyrrol-2-yl)-3H-imidazo[4,5-b]pyridin-7-ylamino]-bicyclo[2.2.1]hept-5-ene-2-carboxylic acid amide] gave a melting point of 293 to 295 °C. Further, in series [2], the pIC50 is over 7.00. In series [3], the pIC50 was over 7.00.

The melting point is the temperature of the solid-liquid transition.
